From patent US11787796B2, “Plasma Kallikrein inhibitors and uses thereof” (Takeda Pharmaceutical Company Limited, priority 2019, dated 2023)

target: human activated kallikrein enzyme (Homo sapiens (Human), UniProt P03952); assay: Plasma kallikrein inhibition assay with fluorogenic peptide substrate, 500 pM activated kallikrein format; type: biochemical; conditions: 500 pM activated kallikrein; 300 uM Pro-Phe-Arg-7-amido-4-methylcoumarin substrate; 30 min preincubation, 10 min reaction at RT; read-out: Primary Dose Response Assay: Average EC50
In short: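 Pro-Phe-Arg-7-amido-4-methylcoumarin substrate (300 uM) started reactions after a 30 min RT enzyme–inhibitor preincubation. This format used 500 pM activated human kallikrein in Tris pH 7.5 buffer with EDTA, NaCl, PEG-400 and Triton X-100. AMC fluorescence (380/460 nm) was measured after 10 min at RT.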

human activated kallikrein enzyme, sequence (P03952 391-638): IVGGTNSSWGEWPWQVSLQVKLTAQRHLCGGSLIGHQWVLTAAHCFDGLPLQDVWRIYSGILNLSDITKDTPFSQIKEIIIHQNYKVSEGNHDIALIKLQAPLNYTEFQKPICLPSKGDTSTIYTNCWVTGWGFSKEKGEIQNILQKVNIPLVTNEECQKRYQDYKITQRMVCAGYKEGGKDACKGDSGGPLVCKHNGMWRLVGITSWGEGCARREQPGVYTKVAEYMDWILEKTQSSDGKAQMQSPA
human activated kallikrein enzyme, sequence (P03952 20-390 partner): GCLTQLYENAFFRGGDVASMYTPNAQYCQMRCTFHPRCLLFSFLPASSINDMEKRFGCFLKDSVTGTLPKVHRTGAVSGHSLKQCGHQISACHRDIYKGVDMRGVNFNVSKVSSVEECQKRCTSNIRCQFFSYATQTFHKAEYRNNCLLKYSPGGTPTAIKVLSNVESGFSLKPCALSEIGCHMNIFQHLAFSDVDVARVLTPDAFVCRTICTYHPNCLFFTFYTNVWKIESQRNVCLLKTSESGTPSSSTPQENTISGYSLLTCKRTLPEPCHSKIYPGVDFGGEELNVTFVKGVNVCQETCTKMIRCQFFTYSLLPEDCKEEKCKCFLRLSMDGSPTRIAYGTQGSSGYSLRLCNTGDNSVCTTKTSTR

| SMILES | EC50 |
| --- | --- |
| O=C(NCCc1cccc(Br)c1)c1cnn(Cc2cn3cc(C4CC4)ccc3n2)c1 [Example I-132, N-(3-bromophenethyl)-1-((6-cyclopropylimidazo[1,2-a]pyridin-2-yl)methyl)-1H-pyrazole-4-carboxamide] | 100 to 2000 nM |
| O=C(NCc1cccc2ccc(Br)cc12)c1cnn(Cc2cn3cc(C4CC4)ccc3n2)c1 [Example I-133, N-((7-bromonaphthalen-1-yl)methyl)-1-((6-cyclopropylimidazo[1,2-a]pyridin-2-yl)methyl)-1H-pyrazole-4-carboxamide] | 2000 to 7100 nM |
| Cc1cc2c(N)noc2c(C)c1CNC(=O)c1cnn(Cc2cn3cc(C4CC4)ccc3n2)c1 [Example I-134, N-((3-amino-5,7-dimethylbenzo[d]isoxazol-6-yl)methyl)-1-((6-cyclopropylimidazo[1,2-a]pyridin-2-yl)methyl)-1H-pyrazole-4-carboxamide] | 2000 to 7100 nM |
| O=C(NC1CCc2c(Cl)ccn3cnc1c23)c1cn(Cc2cn3cc(C4CC4)ccc3n2)nn1 (centres unmarked) [Example I-135, N-(6-chloro-8,9-dihydro-7H-imidazo[4,5,1-ij]quinolin-9-yl)-1-((6-cyclopropylimidazo[1,2-a]pyridin-2-yl)methyl)-1H-1,2,3-triazole-4-carboxamide] | 10 to 100 nM |
| O=C(NCc1ccc2nccn2c1)c1cn(Cc2cn3cc(C4CC4)ccc3n2)nn1 [Example I-136, 1-((6-cyclopropylimidazo[1,2-a]pyridin-2-yl)methyl)-N-(imidazo[1,2-a]pyridin-6-ylmethyl)-1H-1,2,3-triazole-4-carboxamide] | 100 to 2000 nM |
| O=C(NCc1ncc2c(F)cc(Cl)cn12)c1cnn(Cc2cn3cc(C4CC4)ccc3n2)c1 [Example I-137, N-((6-chloro-8-fluoroimidazo[1,5-a]pyridin-3-yl)methyl)-1-((6-cyclopropylimidazo[1,2-a]pyridin-2-yl)methyl)-1H-pyrazole-4-carboxamide] | 100 to 2000 nM |
| COc1ccnc(CNC(=O)c2cn(Cc3cn4cc(C5CC5)cc(CCN(C)C)c4n3)nn2)c1F [Example I-138, 1-((6-cyclopropyl-8-(2-(dimethylamino)ethyl)imidazo[1,2-a]pyridin-2-yl)methyl)-N-((3-fluoro-4-methoxypyridin-2-yl)methyl)-1H-1,2,3-triazole-4-carboxamide] | 1 to 10 nM |
| COc1ccnc(CNC(=O)c2cn(Cc3cn4cc(C5CC5)cc(N5CCN(C)CC5)c4n3)nn2)c1F [Example I-139, 1-((6-cyclopropyl-8-(4-methylpiperazin-1-yl)imidazo[1,2-a]pyridin-2-yl)methyl)-N-((3-fluoro-4-methoxypyridin-2-yl)methyl)-1H-1,2,3-triazole-4-carboxamide] | ≤ 1 nM |
| O=C(NCc1cc2occc2cn1)c1cn(Cc2cn3cc(C4CC4)ccc3n2)nn1 [Example I-140, 1-((6-cyclopropylimidazo[1,2-a]pyridin-2-yl)methyl)-N-(furo[3,2-c]pyridin-6-ylmethyl)-1H-1,2,3-triazole-4-carboxamide] | 100 to 2000 nM |
| O=C(NCc1cc2c(cn1)CCO2)c1cn(Cc2cn3cc(C4CC4)ccc3n2)nn1 [Example I-141, 1-((6-cyclopropylimidazo[1,2-a]pyridin-2-yl)methyl)-N-((2,3-dihydrofuro[3,2-c]pyridin-6-yl)methyl)-1H-1,2,3-triazole-4-carboxamide] | 10 to 100 nM |

The remaining lines, values ahead:

| EC50 | SMILES |
| --- | --- |
| 2000 to 7100 nM | O=C(NCc1cc(Cl)ccn1)c1cn(Cc2cn3cc(C4CC4)ccc3n2)nn1 [Example I-142, N-((4-chloropyridin-2-yl)methyl)-1-((6-cyclopropylimidazo[1,2-a]pyridin-2-yl)methyl)-1H-1,2,3-triazole-4-carboxamide] |
| 1 to 10 nM | O=C(NCc1cc2cc[nH]c2cn1)c1cn(Cc2cn3cc(C4CC4)ccc3n2)nn1 [Example I-144, N-((1H-pyrrolo[2,3-c]pyridin-5-yl)methyl)-1-((6-cyclopropylimidazo[1,2-a]pyridin-2-yl)methyl)-1H-1,2,3-triazole-4-carboxamide] |
| 100 to 2000 nM | O=C(NCc1nccc(Cl)n1)c1cn(Cc2cn3cc(C4CC4)ccc3n2)nn1 [Example I-145, N-((4-chloropyrimidin-2-yl)methyl)-1-((6-cyclopropylimidazo[1,2-a]pyridin-2-yl)methyl)-1H-1,2,3-triazole-4-carboxamide] |
| 1 to 10 nM | O=C(NCc1cc2c(Cl)c[nH]c2cn1)c1cn(Cc2cn3cc(C4CC4)ccc3n2)nn1 [Example I-146, N-((3-chloro-1H-pyrrolo[2,3-c]pyridin-5-yl)methyl)-1-((6-cyclopropylimidazo[1,2-a]pyridin-2-yl)methyl)-1H-1,2,3-triazole-4-carboxamide] |
| 100 to 2000 nM | NCc1cc2c(cn1)N(C(=O)c1cn(Cc3cn4cc(C5CC5)ccc4n3)nn1)CC2 [Example I-147, (5-(aminomethyl)-2,3-dihydro-1H-pyrrolo[2,3-c]pyridin-1-yl)(1-((6-cyclopropylimidazo[1,2-a]pyridin-2-yl)methyl)-1H-1,2,3-triazol-4-yl)methanone] |
| 100 to 2000 nM | O=C(NCc1cc2c(cn1)NCC2)c1cn(Cc2cn3cc(C4CC4)ccc3n2)nn1 [Example I-148, 1-((6-cyclopropylimidazo[1,2-a]pyridin-2-yl)methyl)-N-((2,3-dihydro-1H-pyrrolo[2,3-c]pyridin-5-yl)methyl)-1H-1,2,3-triazole-4-carboxamide] |
| 10 to 100 nM | O=C(NCc1cc2c(cn1)NCCO2)c1cn(Cc2cn3cc(C4CC4)ccc3n2)nn1 [Example I-149, 1-((6-cyclopropylimidazo[1,2-a]pyridin-2-yl)methyl)-N-((3,4-dihydro-2H-pyrido[4,3-b][1,4]oxazin-7-yl)methyl)-1H-1,2,3-triazole-4-carboxamide] |
| 100 to 2000 nM | O=C(NCc1cc2c(cn1)CCCO2)c1cn(Cc2cn3cc(C4CC4)ccc3n2)nn1 [Example I-150, 1-((6-cyclopropylimidazo[1,2-a]pyridin-2-yl)methyl)-N-((3,4-dihydro-2H-pyrano[3,2-c]pyridin-7-yl)methyl)-1H-1,2,3-triazole-4-carboxamide] |
| 100 to 2000 nM | O=C(NC1Cc2ccc(Cl)cc21)c1cn(Cc2cn3cc(C4CC4)ccc3n2)nn1 (centres unmarked) [Example I-151, N-(4-chlorobicyclo[4.2.0]octa-1(6),2,4-trien-7-yl)-1-((6-cyclopropylimidazo[1,2-a]pyridin-2-yl)methyl)-1H-1,2,3-triazole-4-carboxamide] |
| 100 to 2000 nM | O=C(NCc1nccc(OC(F)F)c1F)c1cn(Cc2cn3cc(C4CC4)cc(N4CCN(CC(F)(F)F)CC4)c3n2)nn1 [Example I-152, 1-((6-cyclopropyl-8-(4-(2,2,2-trifluoroethyl)piperazin-1-yl)imidazo[1,2-a]pyridin-2-yl)methyl)-N-((4-(difluoromethoxy)-3-fluoropyridin-2-yl)methyl)-1H-1,2,3-triazole-4-carboxamide] |
| 1 to 10 nM | CN1CCN(c2cc(C3CC3)cn3cc(Cn4cc(C(=O)NCc5nccc(OC(F)F)c5F)nn4)nc23)CC1 [Example I-153] |
| 1 to 10 nM | Cc1[nH]nc2c1CC[C@H]2NC(=O)c1cn(Cc2cn3cc(C4CC4)ccc3n2)nn1 [Example I-154] |
| 1 to 10 nM | Cc1[nH]nc2c1CC[C@H]2NC(=O)c1cnn(Cc2cn3cc(C4CC4)ccc3n2)c1 [Example I-155] |
